Assay results as given in ChEMBL document CHEMBL3885861, “Open TG-GATES”.

Organism: Rattus norvegicus
Assay: Open TG-GATES - Regimen: Daily Repeat
Assay type: toxicity, organism-based, Sprague-Dawley
Set-up: regimen Daily Repeat, gender Male, age 6 weeks
Conditions: in vivo, po, 60 mg/kg, route gavage, dose level Middle; for APTT / Bas / Eos / Fbg / Hb / Ht / Lym / MCH / MCHC / MCV / Mono / Neu / PT / Plat / RBC / Ret / WBC: tissue Blood
[1] = 72 h, tissue Kidney, time 3 day
[2] = 72 h, tissue Plasma, time 3 day

Q: What does the source list for `CC(CN1c2ccccc2Sc2ccccc21)N(C)C` (stereo unspecified) [PROMETHAZINE]?
A: TERMINAL_BW (72 h, time 3 day): 228.9 g; APTT (72 h, time 3 day): 22.4 s; Bas (72 h, time 3 day): 0%; Eos (72 h, time 3 day): 0.8%; Fbg (72 h, time 3 day): 300.8 mg/dL; Hb (72 h, time 3 day): 13.3 g/dL; Ht (72 h, time 3 day): 40.1%; Lym (72 h, time 3 day): 78.8%; MCH (72 h, time 3 day): 20.8 pg; MCHC (72 h, time 3 day): 33.1%; MCV (72 h, time 3 day): 62.8 fL; Mono (72 h, time 3 day): 2.4%; Neu (72 h, time 3 day): 17%; PT (72 h, time 3 day): 16.1 s; Plat (72 h, time 3 day): 121.6 x10_4/uL; RBC (72 h, time 3 day): 639.4 x10_4/ul; Ret (72 h, time 3 day): 6.1%; WBC (72 h, time 3 day): 113.7 x10_2/uL; KIDNEY_L [1]: 1 g; KIDNEY_R [1]: 1 g; KIDNEY_TOTAL [1]: 2 g; LIVER (72 h, tissue Liver, time 3 day): 11.7 g; A/G [2]: 1.3; ALP [2]: 1638.6 IU/L; ALT [2]: 45.8 IU/L; AST [2]: 74.6 IU/L; BUN [2]: 16.8 mg/dL; CRE [2]: 0.2 mg/dL; Ca [2]: 10.9 mg/dL; Cl [2]: 106.6 meq/L; DBIL [2]: 0.002 mg/dL; GLC [2]: 184.8 mg/dL; IP [2]: 7 mg/dL; K [2]: 4.3 meq/L; LDH [2]: 158.2 IU/L; Na [2]: 142 meq/L; PL [2]: 140.8 mg/dL; RALB [2]: 3.1 g/dL; TBIL [2]: 0.008 mg/dL; TC [2]: 73.2 mg/dL; TG [2]: 122.8 mg/dL; TP [2]: 5.5 g/dL; gamma-GTP [2]: 1.4 IU/L; TERMINAL_BW ([…], time 7 day): 255.8 g; TERMINAL_BW ([…], time 14 day): 294.2 g; TERMINAL_BW ([…], time 28 day): 366.5 g; APTT ([…], time 7 day): 23.8 s; Bas ([…], time 7 day): 0%; Eos ([…], time 7 day): 0.8%; Fbg ([…], time 7 day): 293.6 mg/dL; Hb ([…], time 7 day): 13.6 g/dL; Ht ([…], time 7 day): 41.2%; Lym ([…], time 7 day): 80.4%; MCH ([…], time 7 day): 20.2 pg; MCHC ([…], time 7 day): 33.1%; MCV ([…], time 7 day): 61.1 fL; Mono ([…], time 7 day): 2.8%; Neu ([…], time 7 day): 15.2%; PT ([…], time 7 day): 15.8 s; Plat ([…], time 7 day): 107.7 x10_4/uL; RBC ([…], time 7 day): 674.2 x10_4/ul; Ret ([…], time 7 day): 5.1%; WBC ([…], time 7 day): 158 x10_2/uL; APTT ([…], time 14 day): 25 s; Bas ([…], time 14 day): 0%; Eos ([…], time 14 day): 1%; Fbg ([…], time 14 day): 312.6 mg/dL; Hb ([…], time 14 day): 14.2 g/dL; Ht ([…], time 14 day): 41.7%; Lym ([…], time 14 day): 77.8%; MCH ([…], time 14 day): 20.1 pg; MCHC ([…], time 14 day): 34%; MCV ([…], time 14 day): 59.1 fL; Mono ([…], time 14 day): 2%; Neu ([…], time 14 day): 18.4%; PT ([…], time 14 day): 15.6 s; Plat ([…], time 14 day): 111.3 x10_4/uL; RBC ([…], time 14 day): 706.4 x10_4/ul; Ret ([…], time 14 day): 4.8%; WBC ([…], time 14 day): 120.7 x10_2/uL; APTT ([…], time 28 day): 25.7 s; Bas ([…], time 28 day): 0%; Eos ([…], time 28 day): 1%; Fbg ([…], time 28 day): 303.6 mg/dL; Hb ([…], time 28 day): 15.3 g/dL; Ht ([…], time 28 day): 43.8%
